Source: the supplement of paper PMC10307832

Experiments:
Assay in all cases: relative viability (nuclei count vs DMSO), 5 days (fraction); higher = more cells survive
Pictilisib + Luminespib = compound: CS(=O)(=O)N1CCN(Cc2cc3nc(-c4cccc5[nH]ncc45)nc(N4CCOCC4)c3s2)CC1 [Pictilisib] + CCNC(=O)c1noc(-c2cc(C(C)C)c(O)cc2O)c1-c1ccc(CN2CCOCC2)cc1 [Luminespib] (partner 0.01 µM)
Summary of the method: (§1)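 Nuclei were stained with Hoechst during a one-step fixation (final 0.05% Triton X-100, 1% formaldehyde, 1 ug/ml Hoechst) carried out 5 days after dosing, then counted on 4× images. The cells, lung cancer lines in 1536-well plates, had been dosed by pin tool the day after seeding with one drug alone or a fixed anchor-drug dose plus five library-drug doses (not always all listed) in √10 steps. Relative viability is the nuclei count in treated wells divided by that in vehicle wells, and each value is the median of duplicate plates.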

MK-2206 + Bortezomib = compound: NC1(c2ccc(-c3nc4ccn5c(=O)[nH]nc5c4cc3-c3ccccc3)cc2)CCC1 [MK-2206] + CC(C)C[C@H](NC(=O)[C@H](Cc1ccccc1)NC(=O)c1cnccn1)B(O)O [Bortezomib] (partner 0.002 µM)
Summary of the method: as §1

MK-2206 + OSI-027 = compound: NC1(c2ccc(-c3nc4ccn5c(=O)[nH]nc5c4cc3-c3ccccc3)cc2)CCC1 [MK-2206] + COc1cccc2cc(-c3nc([C@H]4CC[C@H](C(=O)O)CC4)n4ncnc(N)c34)[nH]c12 [OSI-027] (partner 0.5 µM)
Summary of the method: as §1

MK-2206 + Tozasertib = compound: NC1(c2ccc(-c3nc4ccn5c(=O)[nH]nc5c4cc3-c3ccccc3)cc2)CCC1 [MK-2206] + Cc1cc(Nc2cc(N3CCN(C)CC3)nc(Sc3ccc(NC(=O)C4CC4)cc3)n2)n[nH]1 [Tozasertib] (partner 0.1 µM)
Summary of the method: as §1

MK-2206 + Decitabine = compound: NC1(c2ccc(-c3nc4ccn5c(=O)[nH]nc5c4cc3-c3ccccc3)cc2)CCC1 [MK-2206] + Nc1ncn([C@H]2C[C@H](O)[C@@H](CO)O2)c(=O)n1 [Decitabine] (partner 2 µM)
Summary of the method: as §1

UMC-11
relative viability (Pictilisib + Luminespib; first compound 0.02 µM): 1.02 | relative viability (Pictilisib + Luminespib; first compound 0.06325 µM): 1.15 | relative viability (Pictilisib + Luminespib; first compound 0.6325 µM): 1.09 | relative viability (Pictilisib + Luminespib; first compound 2 µM): 0.988 | relative viability (MK-2206 + Bortezomib; first compound 0.01 µM): 0.668 | relative viability (MK-2206 + Bortezomib; first compound 0.03162 µM): 0.793 | relative viability (MK-2206 + Bortezomib; first compound 0.3162 µM): 0.852 | relative viability (MK-2206 + Bortezomib; first compound 1 µM): 0.389 | relative viability (MK-2206 + OSI-027; first compound 0.01 µM): 0.491 | relative viability (MK-2206 + OSI-027; first compound 0.03162 µM): 0.567 | relative viability (MK-2206 + OSI-027; first compound 0.3162 µM): 0.46 | relative viability (MK-2206 + OSI-027; first compound 1 µM): 0.521 | relative viability (MK-2206 + Tozasertib; first compound 0.01 µM): 0.194 | relative viability (MK-2206 + Tozasertib; first compound 0.03162 µM): 0.2 | relative viability (MK-2206 + Tozasertib; first compound 0.3162 µM): 0.214 | relative viability (MK-2206 + Tozasertib; first compound 1 µM): 0.192 | relative viability (MK-2206 + Decitabine; first compound 0.01 µM): 0.669 | relative viability (MK-2206 + Decitabine; first compound 0.03162 µM): 0.643 | relative viability (MK-2206 + Decitabine; first compound 0.3162 µM): 0.569 | relative viability (MK-2206 + Decitabine; first compound 1 µM): 0.716
